Assay results from ChEMBL document CHEMBL1772977, “Synthesis and biological evaluation of novel 4-benzylpiperazine ligands for sigma-1 receptor imaging” (Bioorg Med Chem, 2011).

Molecular target: 3-beta-hydroxysteroid-Delta(8),Delta(7)-isomerase (Homo sapiens, UniProt Q15125)
Test: Binding affinity to emopamil binding protein

Sequence of 3-beta-hydroxysteroid-Delta(8),Delta(7)-isomerase (Q15125 whole entry): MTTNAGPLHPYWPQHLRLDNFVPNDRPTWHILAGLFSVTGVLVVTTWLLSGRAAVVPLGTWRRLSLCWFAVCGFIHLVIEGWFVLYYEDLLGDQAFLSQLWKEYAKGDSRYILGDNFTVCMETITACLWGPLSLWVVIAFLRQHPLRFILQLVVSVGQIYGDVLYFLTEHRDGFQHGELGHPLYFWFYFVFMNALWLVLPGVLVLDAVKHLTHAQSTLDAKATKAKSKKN

`COc1cc(CCN2CCN(CCCc3ccccc3)CC2)ccc1O[11CH3]` gave a Ki of 1.72 nM.
